The target in this experiment is T1, Bovine PDE6 (Bos taurus, UniProt P11541+P23439).
T1 construct: Hypotonic extracts were prepared by suspending isolated ROS; tissue Dr. N. Virmaux, INSERM U338, Strasbourg; host or cells: bovine retina, rod outer segment hypotonic extract
T1 sequence (P11541 2-856 limits assumed): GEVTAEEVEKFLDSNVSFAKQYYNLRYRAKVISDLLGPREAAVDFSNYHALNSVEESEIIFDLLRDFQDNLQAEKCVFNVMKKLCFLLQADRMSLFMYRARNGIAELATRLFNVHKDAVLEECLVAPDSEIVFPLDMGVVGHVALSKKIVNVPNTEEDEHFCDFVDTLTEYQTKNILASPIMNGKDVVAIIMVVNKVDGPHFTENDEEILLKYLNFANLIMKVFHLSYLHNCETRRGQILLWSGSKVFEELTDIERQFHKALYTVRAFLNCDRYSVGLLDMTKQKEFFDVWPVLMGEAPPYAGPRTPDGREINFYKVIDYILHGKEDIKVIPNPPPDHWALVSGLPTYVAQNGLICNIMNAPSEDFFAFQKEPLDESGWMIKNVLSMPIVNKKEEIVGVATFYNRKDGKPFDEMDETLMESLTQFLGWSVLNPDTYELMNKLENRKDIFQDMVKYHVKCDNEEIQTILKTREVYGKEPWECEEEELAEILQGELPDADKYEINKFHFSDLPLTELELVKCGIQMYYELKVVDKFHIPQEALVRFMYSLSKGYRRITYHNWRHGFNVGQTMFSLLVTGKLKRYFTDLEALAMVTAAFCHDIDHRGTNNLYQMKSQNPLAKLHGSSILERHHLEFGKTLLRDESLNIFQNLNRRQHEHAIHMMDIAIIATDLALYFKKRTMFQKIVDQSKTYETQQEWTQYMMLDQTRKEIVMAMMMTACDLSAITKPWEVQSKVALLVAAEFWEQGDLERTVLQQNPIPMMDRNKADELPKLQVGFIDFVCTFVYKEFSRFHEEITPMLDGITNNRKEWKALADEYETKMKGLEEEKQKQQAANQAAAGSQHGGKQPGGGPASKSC
T1 sequence (P23439 2-850 limits assumed): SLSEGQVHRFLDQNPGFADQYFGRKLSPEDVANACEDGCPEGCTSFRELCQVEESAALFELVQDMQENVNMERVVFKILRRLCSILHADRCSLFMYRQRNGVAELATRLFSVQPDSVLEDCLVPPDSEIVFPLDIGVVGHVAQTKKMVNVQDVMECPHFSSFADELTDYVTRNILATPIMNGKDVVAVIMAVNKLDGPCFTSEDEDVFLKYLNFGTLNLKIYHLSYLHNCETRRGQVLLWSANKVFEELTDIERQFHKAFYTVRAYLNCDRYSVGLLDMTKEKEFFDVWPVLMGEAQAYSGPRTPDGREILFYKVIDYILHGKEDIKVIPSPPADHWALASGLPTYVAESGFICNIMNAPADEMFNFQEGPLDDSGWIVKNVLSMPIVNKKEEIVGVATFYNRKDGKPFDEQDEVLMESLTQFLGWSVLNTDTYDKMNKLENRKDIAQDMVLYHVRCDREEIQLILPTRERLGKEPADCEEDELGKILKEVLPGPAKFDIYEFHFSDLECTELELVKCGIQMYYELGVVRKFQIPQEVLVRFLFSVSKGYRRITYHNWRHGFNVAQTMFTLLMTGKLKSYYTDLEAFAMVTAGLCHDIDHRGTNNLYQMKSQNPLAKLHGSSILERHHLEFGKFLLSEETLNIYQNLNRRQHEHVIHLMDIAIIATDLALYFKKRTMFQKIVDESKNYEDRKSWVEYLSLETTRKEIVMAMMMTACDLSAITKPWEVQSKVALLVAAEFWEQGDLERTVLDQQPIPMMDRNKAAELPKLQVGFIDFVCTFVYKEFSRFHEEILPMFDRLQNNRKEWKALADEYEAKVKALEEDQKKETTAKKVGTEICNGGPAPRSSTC
T1 sequence (P04972 1-87 partner): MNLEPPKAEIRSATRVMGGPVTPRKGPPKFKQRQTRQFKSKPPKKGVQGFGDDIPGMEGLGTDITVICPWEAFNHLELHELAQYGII
The experiment in a line: PDE6 enzyme inhibition, IC50 determination. In kind it is biochemical. The procedure: Bovine PDE6 was supplied by Dr. N. Virmaux, INSERM U338, Strasbourg. Bovine retinas were prepared as described by Virmaux et al., FEBS Letters, 12(6), pp. 325-328 (1971) and see also, A. Sitaramayya et al., Exp. Eye Res., 25, pp. 163-169 (1977). Briefly, unless stated otherwise, all operations were done in the cold and in dim red light. Eyes were kept in the cold and in the dark for up to four hours after slaughtering.
Preparation of bovine retinal outer segment (ROS) basically followed procedures described by Schichi et al., J. Biol. Chem., 224:529 (1969). In a typical experiment, 35 bovine retinas were ground in a mortar with 35 mL 0.066 M phosphate buffer, pH 7.0, made up to 40% with sucrose, followed by homogenization in a Potter homogenizer (20 up and down strokes). The suspension was centrifuged at 25,000×g for 20 minutes. The pellet was homogenized in 7.5 mL 0.006 M phosphate buffer (40% in sucrose), and carefully layered under 7.5 mL of phosphate buffer (containing no sucrose). Centrifugation was conducted in a swing-out rotor at 45,000×g for 20 minutes, and produced a pellet which is black at the bottom, and also a red band at the interface 0.066 M. phosphate—40% sucrose/0.066 M phosphate (crude ROS). The red material at the interface was removed, diluted with phosphate buffer, spun down to a pellet, and redistributed in buffered 40% sucrose as described above. This procedure was repeated 2 or 3 times until no pellet was formed. The purified ROS was washed in phosphate buffer and finally spun down to a pellet at 25,000×g for 20 minutes. All materials were then kept frozen until used.
Hypotonic extracts were prepared by suspending isolated ROS in 10 mM Tris-Cl pH 7.5, 1 mM EDTA, and 1 mM dithioerythritol, followed by centrifugation at 100,000×g for 30 minutes.
The preparation was reported to have a specific activity of about 35 nmoles cGMP hydrolyzed per minute per milligram protein.
Biophys. Acta, 384:430 (1975).

`CN1CC(=O)N2[C@H](c3ccc4c(c3)OCO4)c3[nH]c4ccccc4c3C[C@@H]2C1=O` [Compound 5, (6R-trans)-6-(1,3-benzodioxol-5-yl)-2,3,6,7,12,12a-hexahydro-2-methylpyrazino[1′,2′:1,6]pyrido[3,4-b]indole-1,4-dione]: the IC50 worked out at 3.4 µM.

The values are drawn from patent publication US6451807B1, “Methods of treating sexual dysfunction in an individual suffering from a retinal disease, class 1 congestive heart failure, or myocardial infarction using a PDE5 inhibitor” (Lilly Icos, LLC., priority 1999, dated 2002).
